Results reported in patent US6369260B1, “Process for the preparation of a pharmacologically active chemical combination” (Laboratori Alchemica S.r.l., priority 1994, dated 2002).
Read-outs that look alike come from different tables or passages of the source.

Legend:
rat = type: in vivo
Protocol: The gastrointestinal tolerability was evaluated by oral administration in the rat.

[1] = test system: collagen-stimulated platelets; experiment: platelet anti-aggregating activity in vivo; conditions: power ratio related to the basic product taken as unit standard; oral administration
Protocol: The platelet anti-aggregating activity was evaluated in vivo on the collagen-stimulated platelets, according to the method described by PINON, J.Pharmacol.Methods 12,79 (1984); the gastrointestinal tolerability was evaluated by oral administration in the rat.
The results are shown in Table 2, which summarizes the study of the antithrombotic properties of said products (III), (XIII) (XVII) and (XVIII) after their oral administration.

[2] = plasmatic concentration after oral administration in the rats; conditions: for native products found in plasma: since the first hours of administration; for time of plasmatic elimination half-life versus native compounds: sometimes even by 300% higher
[3] = gastrointestinal tolerability following intraperitoneal administration; type: in vivo
Excerpt: In addition, the gastrointestinal tolerability was examined in (CCCCV), as compared to the native agent.

[4] = rat, in vivo, po
[5] = test system: Mycobacterium butyricum induced paw volume increase; experiment: anti-arthritic activity, standard adjuvant arthritis method; type: in vivo; conditions: intraperitoneal, rat
Protocol: The anti-arthritic activity of (CCCCV) was determined in the rat, according to the standard adjuvant arthritis method, consisting in the injection of a suspension killed Mycobacterium butyricum in mineral oil in the right hind paw under light ether anesthesia. The volume of the left hindpaw was measured by plethysmography.

carrageen edema = experiment: anti-inflammatory activity, carrageen edema method; type: in vivo; conditions: power ratio related to the basic product taken as unit standard; oral administration, rat
Protocol: The anti-inflammatory activity was determined according to the method of carrageen edema, as described by WINTER et al. Proc.Soc.Exp.Biol.Med. 111,544 (1962), in the rat.
The results are shown in Table 1, which summarizes the study of the anti-inflammatory properties of the compounds under examination after oral administration.

[6] = Table 1, power ratio related to the basic product taken as unit standard, oral administration
[7] = Table 2, relative to Aspirin = 1, oral administration

O=C(Cc1ccccc1Nc1c(Cl)cccc1Cl)OCCCCOC(=O)Cc1ccccc1Nc1c(Cl)cccc1Cl [(X)]
GASTROINT. TOLERABILITY (rat; [6]): 0.1

CC(=O)Oc1ccccc1C(=O)O [Aspirin, reference compound]
PLATELET ANTI-AGGREGATING ACTIVITY [1]: 1 | GASTROINT. TOLERABIL. (rat; in vivo, po): 1

CC(C(=O)OCCCCOC(=O)C(C)c1ccc(-c2ccccc2)c(F)c1)c1ccc(-c2ccccc2)c(F)c1 (centres unmarked) [(IX)]
GASTROINT. TOLERABILITY (rat; [6]): 0.3 | native products found in plasma [2]: significant quantities of the native products were found | time of plasmatic elimination half-life versus native compounds [2]: significantly higher

COc1ccc2cc([C@H](C)C(=O)O)ccc2c1 [Naproxen, reference compound]
GASTROINT. TOLERABILITY (rat; in vivo, po): 1

CC(=O)Oc1ccccc1C(=O)OCCCCCCOC(=O)c1ccccc1OC(C)=O [(III), 1.6-hexandiol bis-acetylsalicylate]
PLATELET ANTI-AGGREGATING ACTIVITY [1]: 0.8 | GASTROINT. TOLERABIL. (rat; [7]): 0.1

CS(=O)(=O)N(C(=O)CCC(=O)N(c1ccc([N+](=O)[O-])cc1Oc1ccccc1)S(C)(=O)=O)c1ccc([N+](=O)[O-])cc1Oc1ccccc1 [(XI), bis-(N-[(2-phenoxy-4-nitro)phenyl]-N′-methansulfonyl)succinamide]
GASTROINT. TOLERABILITY (rat; [6]): 0.8 | native products found in plasma [2]: significant quantities of the native products were found | time of plasmatic elimination half-life versus native compounds [2]: significantly higher

CS(=O)(=O)Nc1ccc([N+](=O)[O-])cc1Oc1ccccc1 [Nimesulide, reference compound]
GASTROINT. TOLERABILITY (rat; [6]): 1

C[C@]12CCC(=O)C=C1CC[C@@H]1[C@@H]2[C@@H](O)C[C@@]2(C)[C@H]1CC[C@]2(O)C(=O)COC(=O)CCCCCCCC(=O)OCC(=O)[C@]1(O)CC[C@@H]2[C@H]3CCC4=CC(=O)CC[C@@]4(C)[C@@H]3[C@H](O)C[C@]21C [(CCCCV), di(21-hydrocortisone)azelate]
gastrointestinal tolerability compared to the native agent [3]: significantly better tolerated than the parent compound | time of plasmatic elimination half-life versus native compounds [4]: significantly higher | anti-arthritic potency relative to parent compound [5]: comparable with the parent compound | duration of pharmacological activity relative to parent compound [5]: greater duration | inhibition of Mycobacterium butyricum induced paw volume increase ([5]; suspended in carboxymethylcellulose 0.5-2%): effective in inhibiting significantly | native products found in plasma [2]: significant quantities of the native products were found

CC(C(=O)O)c1ccc(-c2ccccc2)c(F)c1 (centres unmarked) [Flurbiprofen, reference compound]
GASTROINT. TOLERABILITY (rat; in vivo, po): 1

O=C(O)Cc1ccccc1Nc1c(Cl)cccc1Cl [Diclofenac, reference compound]
GASTROINT. TOLERABILITY (rat; [6]): 1

CC(=O)Oc1ccccc1C(=O)OCCCCOC(=O)c1ccccc1OC(C)=O [(XIII), 1,4-buthanediol bis-acetylsalycylate]
PLATELET ANTI-AGGREGATING ACTIVITY [1]: 0.8 | GASTROINT. TOLERABIL. (rat; [7]): 0.1

CC(C(=O)OCCCCOC(=O)C(C)c1cccc(C(=O)c2ccccc2)c1)c1cccc(C(=O)c2ccccc2)c1 (centres unmarked) [(VII), 1,4-butandiole bis-2-[(3-benzoyl)phenyl]propionate]
GASTROINT. TOLERABILITY (rat; [6]): 0.3 | ANTIEDEMIGENIC ACTIVITY (carrageen edema): 0.9

CC(C(=O)O)c1cccc(C(=O)c2ccccc2)c1 (centres unmarked) [Ketoprofen, reference compound]
GASTROINT. TOLERABILITY (rat; [6]): 1
